Publication PMC9329436, “Optimization of the 4-anilinoquin(az)oline scaffold as epidermal growth factor receptor (EGFR) inhibitors for chordoma utilizing a toxicology profiling assay platform” (Scientific Reports, 2022)
Read-outs that look alike come from different tables or passages of the source.

Experiments:
Type in all cases: biochemical
[1] = target: 320 wild-type protein kinases (Homo sapiens, UniProt Q9UIK4); settings: singlicate
Description: (§1) Table S4. Profiling of two compounds at two concentrations against 320 wild-type protein kinases; singlicate measurement; Residual activities (% of control).

[2] = target: 320 wild-type protein kinases (Homo sapiens, UniProt Q9H0K1); settings: kinase SIK2, singlicate
Description: as §1

[3] = target: 320 wild-type protein kinases (Homo sapiens, UniProt P11802); settings: singlicate
Description: as §1

[4] = target: T1, 320 wild-type protein kinases (Homo sapiens, UniProt P54762); settings: singlicate
T1 sequence (P54762 18-984): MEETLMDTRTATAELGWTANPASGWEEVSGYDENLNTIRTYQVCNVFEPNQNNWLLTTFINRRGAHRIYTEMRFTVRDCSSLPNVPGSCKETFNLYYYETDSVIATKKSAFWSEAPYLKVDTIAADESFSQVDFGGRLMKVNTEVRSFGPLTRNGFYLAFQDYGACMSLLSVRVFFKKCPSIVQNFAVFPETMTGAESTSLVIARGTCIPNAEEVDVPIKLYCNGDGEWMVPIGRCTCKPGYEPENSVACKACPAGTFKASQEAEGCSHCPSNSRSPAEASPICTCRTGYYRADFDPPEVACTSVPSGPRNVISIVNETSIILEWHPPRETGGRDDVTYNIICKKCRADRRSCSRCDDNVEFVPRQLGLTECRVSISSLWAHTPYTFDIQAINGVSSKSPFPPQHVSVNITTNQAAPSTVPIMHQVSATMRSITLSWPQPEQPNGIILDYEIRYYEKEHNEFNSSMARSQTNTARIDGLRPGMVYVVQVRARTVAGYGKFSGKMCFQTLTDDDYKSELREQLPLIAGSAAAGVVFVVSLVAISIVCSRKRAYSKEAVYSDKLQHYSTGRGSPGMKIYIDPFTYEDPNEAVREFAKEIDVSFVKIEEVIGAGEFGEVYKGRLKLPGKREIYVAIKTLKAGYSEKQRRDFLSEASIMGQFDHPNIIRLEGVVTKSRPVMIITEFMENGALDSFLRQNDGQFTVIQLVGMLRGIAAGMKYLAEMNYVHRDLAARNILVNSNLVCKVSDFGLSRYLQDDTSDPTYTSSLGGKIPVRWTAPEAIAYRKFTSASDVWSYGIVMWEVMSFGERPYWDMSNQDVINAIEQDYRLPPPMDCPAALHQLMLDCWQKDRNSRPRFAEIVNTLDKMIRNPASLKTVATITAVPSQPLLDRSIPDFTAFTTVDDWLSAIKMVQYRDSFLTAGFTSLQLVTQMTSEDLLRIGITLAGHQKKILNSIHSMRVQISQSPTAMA
Description: as §1

[5] = target: T2, 320 wild-type protein kinases (Homo sapiens, UniProt Q13043); settings: singlicate
T2 sequence (Q13043 1-487): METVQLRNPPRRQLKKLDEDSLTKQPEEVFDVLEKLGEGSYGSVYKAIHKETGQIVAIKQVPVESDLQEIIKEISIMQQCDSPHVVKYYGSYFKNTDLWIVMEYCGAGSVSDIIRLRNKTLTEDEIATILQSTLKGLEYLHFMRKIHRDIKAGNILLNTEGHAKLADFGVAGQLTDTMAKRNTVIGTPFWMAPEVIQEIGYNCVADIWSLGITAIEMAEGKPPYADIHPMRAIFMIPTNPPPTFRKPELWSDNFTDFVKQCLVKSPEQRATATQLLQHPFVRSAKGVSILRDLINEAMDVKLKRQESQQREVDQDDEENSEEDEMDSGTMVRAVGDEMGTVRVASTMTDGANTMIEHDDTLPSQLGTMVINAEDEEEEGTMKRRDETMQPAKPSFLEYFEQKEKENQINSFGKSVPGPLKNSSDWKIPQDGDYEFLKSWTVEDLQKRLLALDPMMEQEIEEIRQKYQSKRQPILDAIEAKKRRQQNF
Description: as §1

[6] = target: T3, 320 wild-type protein kinases (Homo sapiens, UniProt O15530); settings: singlicate
T3 sequence (O15530 1-556): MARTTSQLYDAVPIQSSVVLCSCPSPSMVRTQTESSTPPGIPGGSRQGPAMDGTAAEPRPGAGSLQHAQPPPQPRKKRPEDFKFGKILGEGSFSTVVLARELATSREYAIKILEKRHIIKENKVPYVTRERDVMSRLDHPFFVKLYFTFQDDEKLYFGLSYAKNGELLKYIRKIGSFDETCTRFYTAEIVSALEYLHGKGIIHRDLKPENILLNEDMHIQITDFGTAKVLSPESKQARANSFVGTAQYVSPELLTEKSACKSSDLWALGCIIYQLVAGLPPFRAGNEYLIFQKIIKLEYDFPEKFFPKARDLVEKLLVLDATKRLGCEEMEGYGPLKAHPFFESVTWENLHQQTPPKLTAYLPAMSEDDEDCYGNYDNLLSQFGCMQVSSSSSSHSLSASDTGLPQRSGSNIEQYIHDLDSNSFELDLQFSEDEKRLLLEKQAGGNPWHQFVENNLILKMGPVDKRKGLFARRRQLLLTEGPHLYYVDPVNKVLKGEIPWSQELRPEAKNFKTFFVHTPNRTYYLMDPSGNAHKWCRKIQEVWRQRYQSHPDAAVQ
Description: as §1

Sequence of 320 wild-type protein kinases (Homo sapiens, UniProt P11802) (P11802 whole entry): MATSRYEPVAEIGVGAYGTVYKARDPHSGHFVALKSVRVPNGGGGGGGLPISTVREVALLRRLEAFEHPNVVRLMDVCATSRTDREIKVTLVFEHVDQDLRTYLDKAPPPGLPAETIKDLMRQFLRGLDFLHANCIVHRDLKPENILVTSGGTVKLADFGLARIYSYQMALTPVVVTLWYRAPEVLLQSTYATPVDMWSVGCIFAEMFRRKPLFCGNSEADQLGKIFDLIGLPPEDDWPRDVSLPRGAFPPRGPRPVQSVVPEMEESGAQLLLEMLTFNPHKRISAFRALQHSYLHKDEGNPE
Sequence of 320 wild-type protein kinases (Homo sapiens, UniProt Q9H0K1) (Q9H0K1 whole entry): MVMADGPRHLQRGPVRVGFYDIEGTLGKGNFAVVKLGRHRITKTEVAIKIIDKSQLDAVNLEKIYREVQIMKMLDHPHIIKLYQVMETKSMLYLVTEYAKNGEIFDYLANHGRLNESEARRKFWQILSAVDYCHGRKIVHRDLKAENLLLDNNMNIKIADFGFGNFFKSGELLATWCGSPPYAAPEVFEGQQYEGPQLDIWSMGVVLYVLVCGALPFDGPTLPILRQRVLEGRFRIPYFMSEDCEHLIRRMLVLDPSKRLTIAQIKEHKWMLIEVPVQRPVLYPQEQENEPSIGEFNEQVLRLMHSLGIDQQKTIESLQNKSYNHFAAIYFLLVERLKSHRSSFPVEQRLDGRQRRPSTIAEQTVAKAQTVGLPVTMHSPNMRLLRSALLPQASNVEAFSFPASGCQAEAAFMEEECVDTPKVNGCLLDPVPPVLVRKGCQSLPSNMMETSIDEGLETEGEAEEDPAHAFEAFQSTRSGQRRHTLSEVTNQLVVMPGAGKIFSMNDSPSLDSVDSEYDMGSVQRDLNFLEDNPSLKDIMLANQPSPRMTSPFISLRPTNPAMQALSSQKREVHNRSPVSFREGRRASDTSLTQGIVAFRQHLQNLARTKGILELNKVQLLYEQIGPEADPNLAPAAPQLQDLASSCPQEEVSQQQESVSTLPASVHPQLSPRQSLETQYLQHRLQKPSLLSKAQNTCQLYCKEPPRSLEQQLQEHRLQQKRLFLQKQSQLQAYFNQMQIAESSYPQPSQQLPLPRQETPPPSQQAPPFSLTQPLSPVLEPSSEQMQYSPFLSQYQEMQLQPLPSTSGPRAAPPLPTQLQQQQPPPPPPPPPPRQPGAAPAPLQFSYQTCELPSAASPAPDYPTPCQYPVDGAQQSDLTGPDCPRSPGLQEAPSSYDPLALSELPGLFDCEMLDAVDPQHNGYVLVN
Sequence of 320 wild-type protein kinases (Homo sapiens, UniProt Q9UIK4) (Q9UIK4 whole entry): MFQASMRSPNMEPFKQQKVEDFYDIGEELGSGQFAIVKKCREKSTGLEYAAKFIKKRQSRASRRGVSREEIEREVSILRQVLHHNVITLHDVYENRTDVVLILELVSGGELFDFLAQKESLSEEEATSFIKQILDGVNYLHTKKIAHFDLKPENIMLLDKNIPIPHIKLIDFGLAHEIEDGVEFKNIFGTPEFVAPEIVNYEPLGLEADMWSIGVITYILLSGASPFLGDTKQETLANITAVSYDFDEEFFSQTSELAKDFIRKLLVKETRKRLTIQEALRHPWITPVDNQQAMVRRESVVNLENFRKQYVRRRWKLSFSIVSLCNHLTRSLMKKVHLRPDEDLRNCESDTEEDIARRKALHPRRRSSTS

Structure (SMILES) | Residual activity ([1]; DAPK2, 1.0E-06 M) | Residual activity ([1]; DAPK2, 1.0E-07 M) | Residual activity, SIK2 ([2]; assay conc. 1.0E-06 M) | Residual activity, SIK2 ([2]; assay conc. 1.0E-07 M) | Residual activity ([3]; CDK4/CycD1, 1.0E-06 M) | Residual activity ([3]; CDK4/CycD1, 1.0E-07 M) | Residual activity ([3]; CDK4/CycD3, 1.0E-06 M) | Residual activity ([3]; CDK4/CycD3, 1.0E-07 M) | Residual activity ([4]; EPHB1, 1.0E-06 M) | Residual activity ([4]; EPHB1, 1.0E-07 M) | Residual activity ([5]; MST1, 1.0E-06 M) | Residual activity ([5]; MST1, 1.0E-07 M) | Residual activity ([6]; PDK1, 1.0E-06 M) | Residual activity ([6]; PDK1, 1.0E-07 M)
C#Cc1cc(Nc2ncnc3cc(I)ccc23)ccc1Cl [Compound 41] | 118 % of control | 113 % of control | 83 % of control | 92 % of control | 79 % of control | 75 % of control | 87 % of control | 94 % of control | 87 % of control | 103 % of control | 84 % of control | 80 % of control | 77 % of control | 96 % of control
C#Cc1cc(Nc2ncnc3cc(OC)c(OC)cc23)ccc1Cl [Compound 45] | 101 % of control | 132 % of control | 67 % of control | 97 % of control | 95 % of control | 87 % of control | 87 % of control | 94 % of control | 82 % of control | 86 % of control | 83 % of control | 89 % of control | 79 % of control | 93 % of control
